Values of other authors, collected in patent US10633688B2, “Systems and methods for predicting response to minoxidil for the treatment of androgenetic alopecia” (Follea International, priority 2010, dated 2020).

Experiments:
[1] = test system: female androgenetic alopecia; conditions: females
SULT1A1 = molecular target: T1, SULT1A1 (Homo sapiens, UniProt P50225)
T1 construct: Plucked hairs were collected from the border between bald and non-bald scalp and inspected visually for an intact bulb; from tissue; host or cells: plucked anagen scalp hair (hair bulb / follicle) of AGA patients
T1 sequence (P50225 whole entry): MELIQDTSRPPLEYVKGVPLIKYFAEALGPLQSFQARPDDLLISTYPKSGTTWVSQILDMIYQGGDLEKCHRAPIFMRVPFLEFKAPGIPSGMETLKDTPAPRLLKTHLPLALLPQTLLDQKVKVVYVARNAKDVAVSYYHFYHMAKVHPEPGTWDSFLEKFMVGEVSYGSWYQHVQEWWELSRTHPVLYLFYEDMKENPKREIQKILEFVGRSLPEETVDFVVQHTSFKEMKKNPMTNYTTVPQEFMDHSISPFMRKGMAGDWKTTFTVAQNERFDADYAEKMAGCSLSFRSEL

For CC(C)(C)NC(=O)[C@H]1CC[C@H]2[C@@H]3CC[C@H]4NC(=O)C=C[C@]4(C)[C@H]3CC[C@]12C [finasteride], the “effectiveness in the treatment of female androgenetic alopecia” value [1] is given as “failed to show the effectiveness”.
For O=C(O)c1ccccc1O [salicylic acid], the “effect on SULT1A1 sulfation of minoxidil” value (SULT1A1) is given as “lower SULT1A1 sulfation of minoxidil by competitive inhibition”.
